Bounds are passed on as bounds.

Broadly, the CC50 is the concentration giving 50% cytotoxicity.

This test deals with HCT116 MTAP-deleted cell lines. In words: Cell viability assay (CellTiter-Glo, 7 days), HCT116 MTAP-deleted. Type of test: cell-based. To be noted: Homo sapiens, HCT-116; cell viability, HCT116 MTAP-deleted; class symbols; read-out: CC50. A digest of the protocol: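 First, compounds are serially diluted in DMSO and dispensed into plates, which are frozen until seeding. Next, cells are added and incubated 7 days at 37 °C, 5% CO2, 90% humidity. Finally, CellTiter-Glo reagent is added and luminescence is measured to derive CC50.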
For orientation: In ATP-based viability assays light output follows the ATP content of the culture.
`[2H]C([2H])([2H])N(C(=O)c1cc2c(cc1F)nc(N)c1cncn12)[C@@H]1COc2cc(C(F)(F)F)ccc21` [Ff-47, 4-amino-7-fluoro-N-(methyl-d3)-N-(6-(trifluoromethyl)-2,3-dihydrobenzofuran-3-yl)imidazo[1,5-a]quinoxaline-8-carboxamide]: the CC50 is under 100 nM.
The value for `CN(Cc1nc(-c2cnn(C(F)F)c2)cs1)C(=O)c1cc2c(cc1F)nc(N)c1cncn12` [Ff-48, 4-amino-N-((4-(1-(difluoromethyl)-1H-pyrazol-4-yl)thiazol-2-yl)methyl)-7-fluoro-N-methylimidazo[1,5-a]quinoxaline-8-carboxamide] was 100 to 1000 nM.
Next, `Cc1ncc2c(N)nc3ccc(C(=O)N(C)Cc4cc5cc(C(F)(F)F)ccn5n4)cc3n12` [Ff-49, 4-amino-N,1-dimethyl-N-((5-(trifluoromethyl)pyrazolo[1,5-a]pyridin-2-yl)methyl)imidazo[1,5-a]quinoxaline-8-carboxamide]: over 1000 nM; `CC(C)N(Cc1ccc(-c2cnn(C(F)(F)F)c2)cc1F)C(=O)c1ccc2nc(N)c3cncn3c2c1` [Ff-50, 4-amino-N-(2-fluoro-4-(1-(trifluoromethyl)-1H-pyrazol-4-yl)benzyl)-N-isopropylimidazo[1,5-a]quinoxaline-8-carboxamide]: under 100 nM.
Consider `CC(C)N(Cc1ccc(-c2cnn(C(F)F)c2)cc1F)C(=O)c1ccc2nc(N)c3cncn3c2c1` [Ff-51, 4-amino-N-(4-(1-(difluoromethyl)-1H-pyrazol-4-yl)-2-fluorobenzyl)-N-isopropylimidazo[1,5-a]quinoxaline-8-carboxamide], for which the CC50 is 100 to 1000 nM.
The value for `Nc1nc2cc(F)c(C(=O)N(Cc3ccc4ncsc4c3)C34CC(C3)C4)cc2n2cncc12` [Ff-52, 4-amino-N-(benzo[d]thiazol-6-ylmethyl)-N-(bicyclo[1.1.1]pentan-1-yl)-7-fluoroimidazo[1,5-a]quinoxaline-8-carboxamide] was 100 to 1000 nM; that for `Nc1nc2cc(F)c(C(=O)N(Cc3ccc(-n4ccnc4)cc3Cl)C34CC(C3)C4)cc2n2cncc12` [Ff-53, 4-amino-N-(bicyclo[1.1.1]pentan-1-yl)-N-(2-chloro-4-(1H-imidazol-1-yl)benzyl)-7-fluoroimidazo[1,5-a]quinoxaline-8-carboxamide] was under 100 nM; that for `CC(C)N(Cc1ccc(Oc2ccccc2)cc1)C(=O)c1ccc2nc(N)c3cncn3c2c1` [Ff-57, 4-amino-N-isopropyl-N-(4-phenoxybenzyl)imidazo[1,5-a]quinoxaline-8-carboxamide] was 100 to 1000 nM.
As for `Cc1ncc2c(N)nc3ccc(C(=O)N4CCC5(CC4)COc4ccccc45)cc3n12` [Ff-61, (4-amino-1-methylimidazo[1,5-a]quinoxalin-8-yl)(2H-spiro[benzofuran-3,4′-piperidin]-1′-yl)methanone], the CC50 is over 1000 nM.
With `Nc1nc2ccc(C(=O)N(Cc3ccc(-n4ccnc4)cc3Cl)C34CC(C3)C4)cc2n2cncc12` [Ff-63, 4-amino-N-(bicyclo[1.1.1]pentan-1-yl)-N-(2-chloro-4-(1H-imidazol-1-yl)benzyl)imidazo[1,5-a]quinoxaline-8-carboxamide], the CC50 lay in the range of 100 to 1000 nM.
Regarding `Cc1ncc2c(N)nc3ccc(C(=O)N4CCC5(CC4)C(=O)N(C)c4ccccc45)cc3n12` [Ff-64, 1′-(4-amino-1-methylimidazo[1,5-a]quinoxaline-8-carbonyl)-1-methylspiro[indoline-3,4′-piperidin]-2-one], the half-maximal cytotoxic concentration (CC50) fell in the range of 100 to 1000 nM.
Next, `Cc1ncc2c(N)nc3ccc(C(=O)N4CCC5(CC4)C(=O)Nc4ccccc45)cc3n12` [Ff-65, 1′-(4-amino-1-methylimidazo[1,5-a]quinoxaline-8-carbonyl)spiro[indoline-3,4′-piperidin]-2-one]: over 1000 nM; `Nc1nc2cc(F)c(C(=O)N3CC[C@@H]4Oc5cc(C(F)(F)F)ccc5[C@@H]43)cc2n2cncc12` [Ff-66, (4-amino-7-fluoroimidazo[1,5-a]quinoxalin-8-yl)((3aS,8bS)-6-(trifluoromethyl)-2,3,3a,8b-tetrahydro-1H-benzofuro[3,2-b]pyrrol-1-yl)methanone]: 100 to 1000 nM; `Cc1ncn2c1c(N)nc1cc(F)c(C(=O)N(C)C3CCc4nc(C(F)(F)F)ccc43)cc12` (stereo not drawn) [Ff-68, 4-amino-7-fluoro-N,3-dimethyl-N-(2-(trifluoromethyl)-6,7-dihydro-5H-cyclopenta[b]pyridin-5-yl)imidazo[1,5-a]quinoxaline-8-carboxamide]: under 100 nM.
The value for `C[C@H](C(=O)N(C)C)N(Cc1ccc(C(F)(F)F)cc1F)C(=O)c1cc2c(cc1F)nc(N)c1cncn12` [Ff-69, 4-amino-N-[(1R)-2-(dimethylamino)-1-methyl-2-oxo-ethyl]-7-fluoro-N-[[2-fluoro-4-(trifluoromethyl)phenyl]methyl]imidazo[1,5-a]quinoxaline-8-carboxamide] was 100 to 1000 nM; that for `CN1CC[C@@H](N(Cc2ccc(C(F)(F)F)cc2F)C(=O)c2cc3c(cc2F)nc(N)c2cncn23)C1=O` [Ff-70, 4-amino-7-fluoro-N-[[2-fluoro-4-(trifluoromethyl)phenyl]methyl]-N-[(3R)-1-methyl-2-oxo-pyrrolidin-3-yl]imidazo[1,5-a]quinoxaline-8-carboxamide] was under 100 nM.
As for `CCN(Cc1ccc(F)cc1Cl)C(=O)c1ccc2nc(N)c3cncn3c2c1` [Ff-71, 4-amino-N-(2-chloro-4-fluorobenzyl)-N-ethylimidazo[1,5-a]quinoxaline-8-carboxamide], the CC50 was 100 to 1000 nM.
As for `CC(C)N(Cc1ccc(F)cc1Cl)C(=O)c1ccc2nc(N)c3cncn3c2c1` [Ff-72, 4-amino-N-(2-chloro-4-fluorobenzyl)-N-isopropylimidazo[1,5-a]quinoxaline-8-carboxamide], the half-maximal cytotoxic concentration (CC50) fell in the range of 100 to 1000 nM.
Next, `Nc1nc2cc(F)c(C(=O)N(Cc3ccc(F)cc3Cl)C3CCC3)cc2n2cncc12` [Ff-73, 4-amino-N-(2-chloro-4-fluorobenzyl)-N-cyclobutyl-7-fluoroimidazo[1,5-a]quinoxaline-8-carboxamide]: 100 to 1000 nM.
Next, `Nc1nc2ccc(C(=O)N3CCOC[C@@H]3c3ccc(C(F)(F)F)cc3)cc2n2cncc12` [Ff-84, (S)-(4-aminoimidazo[1,5-a]quinoxalin-8-yl)(3-(4-(trifluoromethyl)phenyl)morpholino)methanone]: 100 to 1000 nM.
The value for `Nc1nc2cnc(C(=O)N3CCOC[C@@H]3c3ccc(C(F)(F)F)cc3)cc2n2cncc12` [Ff-86, (S)-(4-aminoimidazo[1,5-a]pyrido[3,4-e]pyrazin-8-yl)(3-(4-(trifluoromethyl)phenyl)morpholino)methanone] was under 100 nM; that for `Nc1nc2cnc(C(=O)N3CCCC[C@@H]3c3ccc(C(F)(F)F)cc3)cc2n2cncc12` [Ff-87, (R)-(4-aminoimidazo[1,5-a]pyrido[3,4-e]pyrazin-8-yl)(2-(4-(trifluoromethyl)phenyl)piperidin-1-yl)methanone] was under 100 nM; that for `C[C@H]1CN(C(=O)c2ccc3nc(N)c4cncn4c3c2)[C@H]2c3ccc(C(F)(F)F)cc3C[C@H]2O1` [Ff-89, (4-aminoimidazo[1,5-a]quinoxalin-8-yl)((2S,4aS,9aR)-2-methyl-7-(trifluoromethyl)-2,3,9,9a-tetrahydroindeno[2,1-b][1,4]oxazin-4(4aH)-yl)methanone] was under 100 nM.
Turning to `Cc1ncc2c(N)nc3cc(F)c(C(=O)N4CCOC[C@@H]4c4ccc(C(F)(F)F)cc4)cc3n12` [Ff-92, (S)-(4-amino-7-fluoro-1-methylimidazo[1,5-a]quinoxalin-8-yl)(3-(4-(trifluoromethyl)phenyl)morpholino)methanone], the CC50 was under 100 nM.
Regarding `C[C@H]1CN(C(=O)c2cc3c(cc2F)nc(N)c2cncn23)[C@H]2c3ccc(Br)cc3C[C@H]2O1` [Ff-93, (4-amino-7-fluoroimidazo[1,5-a]quinoxalin-8-yl)((2S,4aS,9aR)-7-bromo-2-methyl-2,3,9,9a-tetrahydroindeno[2,1-b][1,4]oxazin-4(4aH)-yl)methanone], the cytotoxic concentration (CC50) is under 100 nM.
On to `CN(C(=O)c1cc2c(cc1F)nc(N)c1cncn12)[C@@H]1COc2cc(Br)ccc21` [Ff-94, (S)-4-amino-N-(6-bromo-2,3-dihydrobenzofuran-3-yl)-7-fluoro-N-methylimidazo[1,5-a]quinoxaline-8-carboxamide], for which the CC50 is under 100 nM.
With `CN(C(=O)c1cc2c(cc1F)nc(N)c1cncn12)[C@@H]1COc2cc(-c3cnn(C(F)(F)F)c3)ccc21` [Ff-95, (S)-4-amino-7-fluoro-N-methyl-N-(6-(1-(trifluoromethyl)-1H-pyrazol-4-yl)-2,3-dihydrobenzofuran-3-yl)imidazo[1,5-a]quinoxaline-8-carboxamide], the CC50 was under 100 nM.
The value for `C[C@H]1CN(C(=O)c2cc3c(cc2F)nc(N)c2cncn23)[C@H]2c3ccc(-c4cnn(C(F)F)c4)cc3C[C@H]2O1` [Ff-96, (4-amino-7-fluoroimidazo[1,5-a]quinoxalin-8-yl)((2S,4aS,9aR)-7-(1-(difluoromethyl)-1H-pyrazol-4-yl)-2-methyl-2,3,9,9a-tetrahydroindeno[2,1-b][1,4]oxazin-4(4aH)-yl)methanone] was under 100 nM; that for `C[C@H]1CN(C(=O)c2cc3c(cc2F)nc(N)c2cncn23)[C@H]2c3ccc(-c4cnn(C(F)(F)F)c4)cc3C[C@H]2O1` [Ff-97, (4-amino-7-fluoroimidazo[1,5-a]quinoxalin-8-yl)((2S,4aS,9aR)-2-methyl-7-(1-(trifluoromethyl)-1H-pyrazol-4-yl)-2,3,9,9a-tetrahydroindeno[2,1-b][1,4]oxazin-4(4aH)-yl)methanone] was 100 to 1000 nM.
As to `C[C@@H]1CN(C(=O)c2cc3c(cn2)nc(N)c2cncn23)[C@H]2c3ccc(C(F)(F)F)cc3C[C@H]2O1` [Ff-98, (4-aminoimidazo[1,5-a]pyrido[3,4-e]pyrazin-8-yl)((2R,4aS,9aR)-2-methyl-7-(trifluoromethyl)-2,3,9,9a-tetrahydroindeno[2,1-b][1,4]oxazin-4(4aH)-yl)methanone], the half-maximal cytotoxic concentration (CC50) is under 100 nM.

For the origin of these results see patent US12448388B2, “PRMT5 inhibitors and uses thereof” (Gilead Sciences, Inc., priority 2023, dated 2025).
